Laboratory results from PubChem BioAssay (NCI).
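Test compounds were applied to cells in 96-well plates for 48 hours at 5 doses. The concentration for full growth arrest is given as TGI.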

Columns and labels:
Test in all cases: inhibition of tumour cell growth, NCI panel, 48 h
786-0 renal = test system: 786-0 renal
A498 renal = test system: A498 renal
A549 NSCLC = test system: A549 NSCLC
ACHN renal = test system: ACHN renal
CAKI-1 renal = test system: CAKI-1 renal
CCRF-CEM leukemia = test system: CCRF-CEM leukemia
COLO 205 colon = test system: COLO 205 colon
DLD-1 colon = test system: DLD-1 colon
DMS 114 small cell lung = test system: DMS 114 small cell lung
DMS 273 small cell lung = test system: DMS 273 small cell lung
EKVX NSCLC = test system: EKVX NSCLC
HCC-2998 colon = test system: HCC-2998 colon
HCT-116 colon = test system: HCT-116 colon
HCT-15 colon = test system: HCT-15 colon
HL-60(TB) leukemia = test system: HL-60(TB) leukemia
HOP-18 NSCLC = test system: HOP-18 NSCLC
HOP-62 NSCLC = test system: HOP-62 NSCLC
HOP-92 NSCLC = test system: HOP-92 NSCLC
HT29 colon = test system: HT29 colon
IGROV1 ovarian = test system: IGROV1 ovarian
K-562 leukemia = test system: K-562 leukemia
KM12 colon = test system: KM12 colon
KM20L2 colon = test system: KM20L2 colon
LOX IMVI melanoma = test system: LOX IMVI melanoma
LXFL 529 NSCLC = test system: LXFL 529 NSCLC
M14 melanoma = test system: M14 melanoma
M19-MEL melanoma = test system: M19-MEL melanoma
MALME-3M melanoma = test system: MALME-3M melanoma
MOLT-4 leukemia = test system: MOLT-4 leukemia
NCI-H226 lung = test system: NCI-H226 lung
NCI-H23 lung = test system: NCI-H23 lung
NCI-H460 lung = test system: NCI-H460 lung
NCI-H522 lung = test system: NCI-H522 lung
OVCAR-3 ovarian = test system: OVCAR-3 ovarian
OVCAR-4 ovarian = test system: OVCAR-4 ovarian
OVCAR-5 ovarian = test system: OVCAR-5 ovarian
OVCAR-8 ovarian = test system: OVCAR-8 ovarian
RPMI-8226 leukemia = test system: RPMI-8226 leukemia
RXF 393 renal = test system: RXF 393 renal
SF-268 CNS = test system: SF-268 CNS
SF-295 CNS = test system: SF-295 CNS
SF-539 CNS = test system: SF-539 CNS
SK-MEL-2 melanoma = test system: SK-MEL-2 melanoma
SK-MEL-28 melanoma = test system: SK-MEL-28 melanoma
SK-MEL-5 melanoma = test system: SK-MEL-5 melanoma
SK-OV-3 ovarian = test system: SK-OV-3 ovarian
SN12C renal = test system: SN12C renal
SNB-19 CNS = test system: SNB-19 CNS
SNB-75 CNS = test system: SNB-75 CNS
SNB-78 CNS = test system: SNB-78 CNS
SR leukemia = test system: SR leukemia
SW-620 colon = test system: SW-620 colon
TK-10 renal = test system: TK-10 renal
U251 CNS = test system: U251 CNS
UACC-257 melanoma = test system: UACC-257 melanoma
UACC-62 melanoma = test system: UACC-62 melanoma
UO-31 renal = test system: UO-31 renal
XF 498 CNS = test system: XF 498 CNS
RXF-631 renal = test system: RXF-631 renal

## CC(C)N(C(=O)C12C3C4C5C3C1(C(=O)N(C(C)C)C(C)C)C5C42)C(C)C (stereo not given)
786-0 renal
  TGI: > 100 µM
A498 renal
  TGI: > 100 µM
A549 NSCLC
  TGI: > 100 µM
ACHN renal
  TGI: > 100 µM
CAKI-1 renal
  TGI: > 100 µM
CCRF-CEM leukemia
  TGI: > 68.3 µM
COLO 205 colon
  TGI: > 60.6 µM
DLD-1 colon
  TGI: > 64.3 µM
DMS 114 small cell lung
  TGI: > 63.2 µM
DMS 273 small cell lung
  TGI: > 56.7 µM
EKVX NSCLC
  TGI: > 100 µM
HCC-2998 colon
  TGI: > 100 µM
HCT-116 colon
  TGI: > 57.8 µM
HCT-15 colon
  TGI: > 100 µM
HL-60(TB) leukemia
  TGI: > 55.6 µM
HOP-18 NSCLC
  TGI: > 100 µM
HOP-62 NSCLC
  TGI: > 100 µM
HOP-92 NSCLC
  TGI: > 100 µM
HT29 colon
  TGI: > 100 µM
IGROV1 ovarian
  TGI: > 100 µM
K-562 leukemia
  TGI: > 61.5 µM
KM12 colon
  TGI: > 100 µM
KM20L2 colon
  TGI: > 100 µM
LOX IMVI melanoma
  TGI: > 69.5 µM
LXFL 529 NSCLC
  TGI: > 100 µM
M14 melanoma
  TGI: > 100 µM
M19-MEL melanoma
  TGI: > 100 µM
MALME-3M melanoma
  TGI: > 100 µM
MOLT-4 leukemia
  TGI: > 100 µM
NCI-H226 lung
  TGI: > 100 µM
NCI-H23 lung
  TGI: > 100 µM
NCI-H460 lung
  TGI: > 100 µM
NCI-H522 lung
  TGI: > 100 µM
OVCAR-3 ovarian
  TGI: > 100 µM
OVCAR-4 ovarian
  TGI: > 100 µM
OVCAR-5 ovarian
  TGI: > 100 µM
OVCAR-8 ovarian
  TGI: > 100 µM
RPMI-8226 leukemia
  TGI: > 64.4 µM
RXF 393 renal
  TGI: > 100 µM
SF-268 CNS
  TGI: > 100 µM
SF-295 CNS
  TGI: > 100 µM
SF-539 CNS
  TGI: > 100 µM
SK-MEL-2 melanoma
  TGI: > 100 µM
SK-MEL-28 melanoma
  TGI: > 100 µM
SK-MEL-5 melanoma
  TGI: > 100 µM
SK-OV-3 ovarian
  TGI: > 100 µM
SN12C renal
  TGI: > 100 µM
SNB-19 CNS
  TGI: > 100 µM
SNB-75 CNS
  TGI: > 100 µM
SNB-78 CNS
  TGI: > 100 µM
SR leukemia
  TGI: 38.7 µM
SW-620 colon
  TGI: > 88.2 µM
TK-10 renal
  TGI: > 100 µM
U251 CNS
  TGI: > 100 µM
UACC-257 melanoma
  TGI: > 100 µM
UACC-62 melanoma
  TGI: > 100 µM
UO-31 renal
  TGI: > 100 µM
XF 498 CNS
  TGI: > 100 µM

## C=CCN1C(=O)C/C(=C2/CCC(=O)N2CC=C)C1=O
786-0 renal
  TGI: > 100 µM
A498 renal
  TGI: > 100 µM
A549 NSCLC
  TGI: > 100 µM
ACHN renal
  TGI: > 100 µM
CAKI-1 renal
  TGI: > 100 µM
CCRF-CEM leukemia
  TGI: > 100 µM
COLO 205 colon
  TGI: > 100 µM
DLD-1 colon
  TGI: > 100 µM
DMS 114 small cell lung
  TGI: > 100 µM
DMS 273 small cell lung
  TGI: > 100 µM
EKVX NSCLC
  TGI: > 100 µM
HCC-2998 colon
  TGI: > 100 µM
HCT-116 colon
  TGI: > 100 µM
HCT-15 colon
  TGI: > 100 µM
HL-60(TB) leukemia
  TGI: > 100 µM
HOP-18 NSCLC
  TGI: > 100 µM
HOP-62 NSCLC
  TGI: > 100 µM
HOP-92 NSCLC
  TGI: > 100 µM
HT29 colon
  TGI: > 100 µM
IGROV1 ovarian
  TGI: > 100 µM
K-562 leukemia
  TGI: > 100 µM
KM12 colon
  TGI: > 100 µM
KM20L2 colon
  TGI: > 100 µM
LOX IMVI melanoma
  TGI: > 100 µM
LXFL 529 NSCLC
  TGI: > 100 µM
M14 melanoma
  TGI: > 100 µM
M19-MEL melanoma
  TGI: > 100 µM
MALME-3M melanoma
  TGI: > 100 µM
MOLT-4 leukemia
  TGI: > 100 µM
NCI-H226 lung
  TGI: > 100 µM
NCI-H23 lung
  TGI: > 100 µM
NCI-H460 lung
  TGI: > 100 µM
NCI-H522 lung
  TGI: > 100 µM
OVCAR-3 ovarian
  TGI: > 100 µM
OVCAR-4 ovarian
  TGI: > 100 µM
OVCAR-5 ovarian
  TGI: > 100 µM
OVCAR-8 ovarian
  TGI: > 100 µM
RXF 393 renal
  TGI: > 100 µM
RXF-631 renal
  TGI: > 100 µM
SF-268 CNS
  TGI: > 100 µM
SF-295 CNS
  TGI: > 100 µM
SF-539 CNS
  TGI: > 100 µM
SK-MEL-2 melanoma
  TGI: > 100 µM
SK-MEL-28 melanoma
  TGI: > 100 µM
SK-MEL-5 melanoma
  TGI: > 100 µM
SK-OV-3 ovarian
  TGI: > 100 µM
SN12C renal
  TGI: > 100 µM
SNB-19 CNS
  TGI: > 100 µM
SNB-75 CNS
  TGI: > 100 µM
SNB-78 CNS
  TGI: > 100 µM
SR leukemia
  TGI: > 100 µM
SW-620 colon
  TGI: > 100 µM
TK-10 renal
  TGI: > 100 µM
U251 CNS
  TGI: > 100 µM
UACC-257 melanoma
  TGI: > 100 µM
UACC-62 melanoma
  TGI: > 100 µM
UO-31 renal
  TGI: > 100 µM
